According to US10570122B2, “Compounds with anti-tumoral activity” (AB Science, priority 2015, dated 2020):

How the values were obtained:
REC1 = assay: CellTiter-Blue cell-based survival/proliferation assay, REC1; settings: Homo sapiens, Lymphoma cell line REC1, 48 h, read-out: Anti-tumoral activity (measured IC50) REC1
Summary of the method: (§1)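 Compounds, diluted tenfold serially over 0–10 μM, are applied to 1·10^4 seeded cells per well for 48 h at 37 °C. Resorufin formed during a further 4 h with CellTiter-Blue is detected by fluorescence emission at 590 nm.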

DLD1 = assay: CellTiter-Blue cell-based survival/proliferation assay, DLD1; settings: Homo sapiens, DLD-1; DLD_1 colorectal tumor cell line, 48 h
Summary of the method: as §1

HUT78 = assay: CellTiter-Blue cell-based survival/proliferation assay, HUT78; settings: Homo sapiens, Lymphoma cell line HUT78, 48 h, read-out: Anti-tumoral activity (measured IC50) HUT78
Summary of the method: as §1

HEP2 = assay: CellTiter-Blue cell-based survival/proliferation assay, HEP2; settings: Homo sapiens, HEp-2; HEP2 head & neck tumor cell line, 48 h
Summary of the method: as §1

PLCPRF5 = assay: CellTiter-Blue cell-based survival/proliferation assay, PLCPRF5; settings: Homo sapiens, PLC-PRF-5; PLC_PRF5 liver tumor cell line, 48 h
Summary of the method: as §1

H1299 = assay: CellTiter-Blue cell-based survival/proliferation assay, H1299; settings: Homo sapiens, NCI-H1299; H1299 lung tumor cell line, 48 h
Summary of the method: as §1

SW579 = assay: CellTiter-Blue cell-based survival/proliferation assay, SW579; settings: Homo sapiens; SW579 head & neck tumor cell line, 48 h
Summary of the method: as §1

KARPAS299 = assay: CellTiter-Blue cell-based survival/proliferation assay, KARPAS299; settings: Homo sapiens, KARPAS-299, Lymphoma cell line KARPAS299, 48 h, read-out: Anti-tumoral activity (measured IC50) KARPAS299
Summary of the method: as §1

HCT116 = assay: CellTiter-Blue cell-based survival/proliferation assay, HCT116; settings: Homo sapiens, HCT-116; HCT116 colorectal tumor cell line, 48 h
Summary of the method: as §1

A549 = assay: CellTiter-Blue cell-based survival/proliferation assay, A549; settings: Homo sapiens; A549 lung tumor cell line, 48 h
Summary of the method: as §1

CLS354 = assay: CellTiter-Blue cell-based survival/proliferation assay, CLS354; settings: Homo sapiens, CLS-354; CLS354_4 head & neck tumor cell line, 48 h
Summary of the method: as §1

BT20 = assay: CellTiter-Blue cell-based survival/proliferation assay, BT20; settings: Homo sapiens, BT-20; BT20 breast tumor cell line, 48 h
Summary of the method: as §1

OPM2 = assay: CellTiter-Blue cell-based survival/proliferation assay, OPM2; settings: Homo sapiens, OPM-2, Myeloma cell line OPM2, 48 h, read-out: Anti-tumoral activity (measured IC50) OPM2
Summary of the method: as §1

[1] = system: panel of about 34 human tumor cell lines; assay: Cell-based proliferation screening on panel of tumor cell lines; settings: solid tumor cell line, cell line unknown, 48 h, read-out: IC50, solid tumor cell line of column 6 (last section of Table 3)
Summary of the method: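 CellTiter-Blue survival assay with 1·10^4 cells/well, each line treated 48 h at 37° C with 1/10 serial dilutions from 0 to 10 μM. Resorufin formed during a 4 h reagent incubation is read by fluorescence at 590 nm. A cell-free blank serves as background.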

A498 = assay: CellTiter-Blue cell-based survival/proliferation assay, A498; settings: Homo sapiens; A498 kidney tumor cell line, 48 h
Summary of the method: as §1

AGS = assay: CellTiter-Blue cell-based survival/proliferation assay, AGS; settings: Homo sapiens; AGS stomach tumor cell line, 48 h
Summary of the method: as §1

MDAMB231 = assay: CellTiter-Blue cell-based survival/proliferation assay, MDAMB231; settings: Homo sapiens, MDA-MB-231; MDAMB231 breast tumor cell line, 48 h
Summary of the method: as §1

BXPC3 = assay: CellTiter-Blue cell-based survival/proliferation assay, BXPC3; settings: Homo sapiens, BXPC-3; BXPC3 pancreas tumor cell line, 48 h
Summary of the method: as §1

HL60 = assay: CellTiter-Blue cell-based survival/proliferation assay, HL60; settings: Homo sapiens, HL-60, Leukemia cell line HL60, 48 h, read-out: Anti-tumoral activity (measured IC50) HL60
Summary of the method: as §1

CALU6 = assay: CellTiter-Blue cell-based survival/proliferation assay, CALU6; settings: Homo sapiens, Calu-6; CALU6 lung tumor cell line, 48 h
Summary of the method: as §1

PANC1 = assay: CellTiter-Blue cell-based survival/proliferation assay, PANC1; settings: Homo sapiens, PANC-1; PANC_1 pancreas tumor cell line, 48 h
Summary of the method: as §1

PC3 = assay: CellTiter-Blue cell-based survival/proliferation assay, PC3; settings: Homo sapiens, PC-3; PC3 prostate tumor cell line, 48 h
Summary of the method: as §1

HGC27 = assay: CellTiter-Blue cell-based survival/proliferation assay, HGC27; settings: Homo sapiens, HGC-27; HGC27 stomach tumor cell line, 48 h
Summary of the method: as §1

ACHN = assay: CellTiter-Blue cell-based survival/proliferation assay, ACHN; settings: Homo sapiens; ACHN kidney tumor cell line, 48 h
Summary of the method: as §1

DU145 = assay: CellTiter-Blue cell-based survival/proliferation assay, DU145; settings: Homo sapiens, DU-145; DU145 prostate tumor cell line, 48 h
Summary of the method: as §1

MESSA = assay: CellTiter-Blue cell-based survival/proliferation assay, MESSA; settings: Homo sapiens, MES-SA; MESSA ovary tumor cell line, 48 h
Summary of the method: as §1

TOV112D = assay: CellTiter-Blue cell-based survival/proliferation assay, TOV112D; settings: Homo sapiens; TOV112D ovary tumor cell line, 48 h
Summary of the method: as §1

HEPG2 = assay: CellTiter-Blue cell-based survival/proliferation assay, HEPG2; settings: Homo sapiens; HEPG2 liver tumor cell line, 48 h
Summary of the method: as §1

Row | IC50 [1] | Compound | IC50 (REC1) | IC50 (DLD1) | IC50 (HUT78) | IC50 (HEP2) | IC50 (PLCPRF5) | IC50 (H1299) | IC50 (SW579) | IC50 (KARPAS299) | IC50 (HCT116) | IC50 (A549) | IC50 (CLS354) | IC50 (BT20) | IC50 (OPM2) | IC50 (A498) | IC50 (AGS) | IC50 (MDAMB231) | IC50 (BXPC3) | IC50 (HL60) | IC50 (CALU6) | further results
1 | > 1000 nM | CCOCc1ccc(C)c(Nc2ncc(-c3ccc(-n4ccnn4)cc3)o2)c1 [Example 035, (5-Ethoxymethyl-2-methyl-phenyl)-[5-(4-[1,2,3]triazol-1-yl-phenyl)-oxazol-2-yl]-amine] | 500 to 1000 nM | > 1000 nM | 500 to 1000 nM | > 1000 nM | > 1000 nM | > 1000 nM | > 1000 nM | 500 to 1000 nM | > 1000 nM | > 1000 nM | > 1000 nM | > 1000 nM | > 1000 nM | > 1000 nM | > 1000 nM | > 1000 nM | > 1000 nM | > 1000 nM | > 1000 nM | IC50 (PANC1): > 1000 nM; IC50 (PC3): > 1000 nM; IC50 (HGC27): > 1000 nM; IC50 (ACHN): > 1000 nM; IC50 (DU145): > 1000 nM; IC50 (MESSA): > 1000 nM; IC50 (TOV112D): 500 to 1000 nM; IC50 (HEPG2): > 1000 nM
2 | 100 to 500 nM | CCOCc1ccc(C)c(Nc2ncc(-c3ccc(-n4nccn4)cc3)o2)c1 [Example 036, (5-Ethoxymethyl-2-methyl-phenyl)-[5-(4-[1,2,3]triazol-2-yl-phenyl)-oxazol-2-yl]-amine] | ≤ 100 nM | > 1000 nM | ≤ 100 nM | 100 to 500 nM | > 1000 nM | 500 to 1000 nM | > 1000 nM | ≤ 100 nM | > 1000 nM | > 1000 nM | ≤ 100 nM | 500 to 1000 nM | 100 to 500 nM | > 1000 nM | ≤ 100 nM | > 1000 nM | > 1000 nM | 100 to 500 nM | 500 to 1000 nM | IC50 (PANC1): > 1000 nM; IC50 (PC3): 100 to 500 nM; IC50 (HGC27): ≤ 100 nM; IC50 (ACHN): 100 to 500 nM; IC50 (DU145): > 1000 nM; IC50 (MESSA): > 1000 nM; IC50 (TOV112D): ≤ 100 nM; IC50 (HEPG2): 100 to 500 nM
3 | 500 to 1000 nM | CCOCc1ccc(C)c(Nc2ncc(-c3ccc(-c4nccs4)cc3)o2)c1 [Example 038, (5-Ethoxymethyl-2-methyl-phenyl)-[5-(4-thiazol-2-yl-phenyl)-oxazol-2-yl]-amine] | 100 to 500 nM | > 1000 nM | > 1000 nM | 500 to 1000 nM | > 1000 nM | > 1000 nM | > 1000 nM | > 1000 nM | > 1000 nM | > 1000 nM | > 1000 nM | > 1000 nM | 100 to 500 nM | > 1000 nM | > 1000 nM | > 1000 nM | > 1000 nM | 100 to 500 nM | > 1000 nM | IC50 (PANC1): > 1000 nM; IC50 (PC3): > 1000 nM; IC50 (HGC27): > 1000 nM; IC50 (ACHN): > 1000 nM; IC50 (DU145): > 1000 nM; IC50 (MESSA): > 1000 nM; IC50 (TOV112D): > 1000 nM; IC50 (HEPG2): > 1000 nM
